Non-standard residues stand in square brackets, D forms with d. Residues, ends and D or L forms follow the SMILES beside them. MeBmt = C/C=C/C[C@@H](C)[C@@H](O)[C@H](NC)C(=O)O; NMeL = CN[C@@H](CC(C)C)C(=O)O; NMeV = CN[C@H](C(=O)O)C(C)C; dNMeA = CN[C@H](C)C(=O)O
system: MT4 cells; experiment: Cytotoxicity in MT4-cells (MTT); conditions: not given
Experimental: To evaluate the anti-HIV potential in additional cell lines and particularly in a monocytic cell line (U937), cellular toxicity of the test compound to these cell lines is first assessed. Jurkat and U937 cell suspensions are adjusted to 1×10^5 cells/ml and incubated in the presence of various concentrations of test compound. After 48 hours the amounts of cells per ml are compared by staining with MTT. Cytoxicity in MT4 cells may be measured in the same way.
The significance of these numbers and the appropriate methods are discussed supra.

| SMILES | Cytotoxicity [µg/mL] |
| --- | --- |
| CCCC[C@@H](C)[C@@H](O)[C@H]1C(=O)N[C@@H](CC)C(=O)N(C)CC(=O)N(C)[C@@H](CC(C)(C)O)C(=O)N[C@@H](C(C)C)C(=O)N(C)[C@@H](CC(C)C)C(=O)N[C@@H](C)C(=O)N[C@H](C)C(=O)N(C)[C@@H](CC(C)C)C(=O)N(C)[C@@H](CC(C)C)C(=O)N(C)[C@@H](C(C)C)C(=O)N1C [Compound a), [dihydro-MeBmt]^1-[γ-hydroxy-MeLeu]^4 -Ciclosporin] | 16.3 |
| C/C=C/C[C@@H](C)[C@@H](O)[C@H]1C(=O)N[C@@H](CC)C(=O)N(C)CC(=O)N(C)[C@@H](CC(C)(C)O)C(=O)N[C@@H](C(C)C)C(=O)N(C)[C@@H](CC(C)C)C(=O)N[C@@H](C)C(=O)N[C@H](C)C(=O)N(C)[C@@H](CC(C)C)C(=O)N(C)[C@@H](CC(C)C)C(=O)N(C)[C@@H](C(C)C)C(=O)N1C [Compound e), [γ-hydroxy-MeLeu]^4 -Ciclosporin] | 15.5 |
| C/C=C/C[C@@H](C)[C@@H](O)[C@H]1C(=O)N[C@@H](CCC)C(=O)N(C)CC(=O)N(C)[C@@H](CC(C)(C)O)C(=O)N[C@@H](C(C)C)C(=O)N(C)[C@@H](CC(C)C)C(=O)N[C@@H](C)C(=O)N[C@H](C)C(=O)N(C)[C@@H](CC(C)C)C(=O)N(C)[C@@H](CC(C)C)C(=O)N(C)[C@@H](C(C)C)C(=O)N1C [Compound f), [Nva]^2-[γ-hydroxy-MeLeu]^4 -Ciclosporin] | 14.0 |
| C/C=C/C[C@@H](C)[C@@H](O)[C@H]1C(=O)N[C@@H](CC)C(=O)N(C)CC(=O)N(C)[C@@H](CC(C)C)C(=O)N(C)[C@@H](C(C)C)C(=O)N(C)[C@@H](CC(C)C)C(=O)N[C@@H](C)C(=O)N[C@H](C)C(=O)N(C)[C@@H](CC(C)C)C(=O)N(C)[C@@H](CC(C)C)C(=O)N(C)[C@@H](C(C)C)C(=O)N1C [Compound h), [MeVal]^5 -Ciclosporin] | 4.4 |
| C/C=C/C[C@@H](C)[C@@H](O)[C@H]1C(=O)N[C@@H]([C@@H](C)OC)C(=O)N(C)[C@H](C)C(=O)N(C)[C@@H](CC(C)C)C(=O)N(C)[C@@H](C(C)C)C(=O)N(C)[C@@H](CC(C)C)C(=O)N[C@@H](C)C(=O)N[C@H](C)C(=O)N(C)[C@@H](CC(C)C)C(=O)N(C)[C@@H](CC(C)C)C(=O)N(C)[C@@H](C(C)C)C(=O)N1C [Compound i), [MeOThr]^2-[(D)MeAla]^3-[MeVal]^5 -Ciclosporin] (cyclo(A[dA][NMeL][NMeL][NMeV][MeBmt]T(Me)[dNMeA][NMeL][NMeV][NMeL])) | > 10 |
| CC[C@@H]1NC(=O)[C@H]([C@H](O)[C@H](C)C/C=C/CO)N(C)C(=O)[C@H](C(C)C)N(C)C(=O)[C@H](CC(C)C)N(C)C(=O)[C@H](CC(C)C)N(C)C(=O)[C@@H](C)NC(=O)[C@H](C)NC(=O)[C@H](CC(C)C)N(C)C(=O)[C@H](C(C)C)NC(=O)[C@H](CC(C)C)N(C)C(=O)CN(C)C1=O [Compound j), [8'-hydroxy-MeBmt]^1 -Ciclosporin] | 10.6 |
| C/C=C/C[C@@H](C)[C@@H](O)[C@H]1C(=O)N[C@@H](CC)C(=O)N(C)CC(=O)N(C)[C@@H](CC(C)C)C(=O)N[C@@H](C(C)C)C(=O)N(C)[C@@H](C)C(=O)N[C@@H](C)C(=O)N[C@H](C)C(=O)N(C)[C@@H](CC(C)C)C(=O)N(C)[C@@H](CC(C)C)C(=O)N(C)[C@@H](C(C)C)C(=O)N1C [Compound k), [MeAla]^6 -Ciclosporin] | 5.2 |
| C/C=C/C[C@@H](C)[C@@H](O)[C@H]1C(=O)N[C@@H](CC)C(=O)N(C)CC(=O)N(C)[C@@H](CC(C)C)C(=O)N[C@@H](C(C)C)C(=O)N(C)[C@@H](CC(C)C)C(=O)N[C@@H](C)C(=O)N[C@H](C)C(=O)N(C)[C@@H](CC(C)(C)O)C(=O)N(C)[C@@H](CC(C)C)C(=O)N(C)[C@@H](C(C)C)C(=O)N1C [l), [γ-hydroxy-MeLeu]^9 -Ciclosporin] | > 10 |

same assay, conditions: MT4-cells, MTT staining

| SMILES | Cytotoxicity [µg/mL] |
| --- | --- |
| C/C=C/C[C@@H](C)[C@@H](O)[C@H]1C(=O)N[C@@H](CC)C(=O)N(C)CC(=O)N(C)[C@@H](C(C)C)C(=O)N[C@@H](C(C)C)C(=O)N(C)[C@@H](CC(C)C)C(=O)N[C@@H](C)C(=O)N[C@H](C)C(=O)N(C)[C@@H](CC(C)C)C(=O)N(C)[C@@H](CC(C)C)C(=O)N(C)[C@@H](C(C)C)C(=O)N1C [Compound b), [MeVal]^4 -Ciclosporin] | 5.4 |
| C/C=C/C[C@@H](C)[C@@H](O)[C@H]1C(=O)N[C@@H](CC)C(=O)N(C)CC(=O)N(C)[C@@H]([C@@H](C)CC)C(=O)N[C@@H](C(C)C)C(=O)N(C)[C@@H](CC(C)C)C(=O)N[C@@H](C)C(=O)N[C@H](C)C(=O)N(C)[C@@H](CC(C)C)C(=O)N(C)[C@@H](CC(C)C)C(=O)N(C)[C@@H](C(C)C)C(=O)N1C [Compound c), [MeIle]^4 -Ciclosporin] | 4.5 |

Reference: patent US6255100A, “Cyclosporin fermentation process” (Novartis AG, priority 1990, dated 2001)
